Bridge positions count the residues as written; N and C are the ends. Peptide text beside a SMILES is read from it.
Tests used:
[1] = target: Sodium channel protein type 9 subunit alpha (Homo sapiens, UniProt Q15858); test: Inhibition of human NaV1.7 at -140 mV holding potential by whole-cell patch clamp assay
[2] = target: Sodium channel protein type 5 subunit alpha (Homo sapiens, UniProt Q14524); test: Inhibition of human NaV1.5 at -140 mV holding potential by whole-cell patch clamp assay
Chain of Sodium channel protein type 5 subunit alpha (Q14524 whole entry): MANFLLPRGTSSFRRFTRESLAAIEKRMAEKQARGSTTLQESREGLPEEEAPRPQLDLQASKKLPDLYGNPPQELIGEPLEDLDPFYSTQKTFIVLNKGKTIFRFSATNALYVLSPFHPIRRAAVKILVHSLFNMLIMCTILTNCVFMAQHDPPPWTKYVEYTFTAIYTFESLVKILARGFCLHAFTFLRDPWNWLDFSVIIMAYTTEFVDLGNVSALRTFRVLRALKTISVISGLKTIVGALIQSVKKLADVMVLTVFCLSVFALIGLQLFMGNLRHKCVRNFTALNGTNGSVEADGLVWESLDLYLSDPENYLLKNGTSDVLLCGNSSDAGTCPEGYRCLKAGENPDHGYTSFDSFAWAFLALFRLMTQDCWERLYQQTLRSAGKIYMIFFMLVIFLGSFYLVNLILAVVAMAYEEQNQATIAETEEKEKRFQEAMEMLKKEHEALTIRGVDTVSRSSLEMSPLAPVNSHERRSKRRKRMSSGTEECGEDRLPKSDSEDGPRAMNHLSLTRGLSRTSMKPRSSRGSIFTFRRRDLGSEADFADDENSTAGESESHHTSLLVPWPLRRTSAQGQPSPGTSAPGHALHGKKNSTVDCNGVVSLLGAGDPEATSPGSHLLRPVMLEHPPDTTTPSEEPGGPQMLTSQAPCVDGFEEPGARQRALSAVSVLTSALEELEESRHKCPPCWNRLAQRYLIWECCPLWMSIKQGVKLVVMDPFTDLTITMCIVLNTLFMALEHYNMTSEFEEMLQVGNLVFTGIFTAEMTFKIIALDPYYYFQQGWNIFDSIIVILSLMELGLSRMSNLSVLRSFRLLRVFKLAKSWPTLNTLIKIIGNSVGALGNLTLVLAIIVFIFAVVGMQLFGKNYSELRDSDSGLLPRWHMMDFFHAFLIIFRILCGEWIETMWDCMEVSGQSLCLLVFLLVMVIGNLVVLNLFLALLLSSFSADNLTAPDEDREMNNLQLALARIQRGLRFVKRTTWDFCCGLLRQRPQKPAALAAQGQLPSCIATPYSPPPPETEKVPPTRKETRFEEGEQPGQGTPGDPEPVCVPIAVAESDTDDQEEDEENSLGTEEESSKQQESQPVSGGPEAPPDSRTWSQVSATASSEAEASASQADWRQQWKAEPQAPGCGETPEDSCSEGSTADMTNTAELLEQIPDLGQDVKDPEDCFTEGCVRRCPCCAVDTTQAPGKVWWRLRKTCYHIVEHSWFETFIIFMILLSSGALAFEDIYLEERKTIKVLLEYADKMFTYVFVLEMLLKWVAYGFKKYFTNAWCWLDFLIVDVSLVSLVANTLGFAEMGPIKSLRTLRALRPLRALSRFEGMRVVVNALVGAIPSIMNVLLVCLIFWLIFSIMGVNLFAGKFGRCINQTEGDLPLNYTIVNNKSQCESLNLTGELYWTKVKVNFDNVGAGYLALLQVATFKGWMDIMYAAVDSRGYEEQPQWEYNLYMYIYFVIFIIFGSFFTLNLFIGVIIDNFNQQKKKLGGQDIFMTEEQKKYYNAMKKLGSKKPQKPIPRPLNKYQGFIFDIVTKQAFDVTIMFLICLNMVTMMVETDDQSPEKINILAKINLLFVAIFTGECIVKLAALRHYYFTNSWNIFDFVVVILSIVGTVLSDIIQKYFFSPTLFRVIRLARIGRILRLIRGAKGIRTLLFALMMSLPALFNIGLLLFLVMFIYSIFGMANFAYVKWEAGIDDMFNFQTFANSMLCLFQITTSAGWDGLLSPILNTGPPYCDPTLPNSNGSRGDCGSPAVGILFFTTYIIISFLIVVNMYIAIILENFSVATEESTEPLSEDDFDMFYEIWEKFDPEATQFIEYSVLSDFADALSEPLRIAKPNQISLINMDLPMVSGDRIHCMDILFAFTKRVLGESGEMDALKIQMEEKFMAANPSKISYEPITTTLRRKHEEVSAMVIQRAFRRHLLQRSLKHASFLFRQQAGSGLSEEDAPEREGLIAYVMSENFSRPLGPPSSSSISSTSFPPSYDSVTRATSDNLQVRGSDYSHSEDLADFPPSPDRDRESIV

Chain of Sodium channel protein type 9 subunit alpha (Q15858 whole entry): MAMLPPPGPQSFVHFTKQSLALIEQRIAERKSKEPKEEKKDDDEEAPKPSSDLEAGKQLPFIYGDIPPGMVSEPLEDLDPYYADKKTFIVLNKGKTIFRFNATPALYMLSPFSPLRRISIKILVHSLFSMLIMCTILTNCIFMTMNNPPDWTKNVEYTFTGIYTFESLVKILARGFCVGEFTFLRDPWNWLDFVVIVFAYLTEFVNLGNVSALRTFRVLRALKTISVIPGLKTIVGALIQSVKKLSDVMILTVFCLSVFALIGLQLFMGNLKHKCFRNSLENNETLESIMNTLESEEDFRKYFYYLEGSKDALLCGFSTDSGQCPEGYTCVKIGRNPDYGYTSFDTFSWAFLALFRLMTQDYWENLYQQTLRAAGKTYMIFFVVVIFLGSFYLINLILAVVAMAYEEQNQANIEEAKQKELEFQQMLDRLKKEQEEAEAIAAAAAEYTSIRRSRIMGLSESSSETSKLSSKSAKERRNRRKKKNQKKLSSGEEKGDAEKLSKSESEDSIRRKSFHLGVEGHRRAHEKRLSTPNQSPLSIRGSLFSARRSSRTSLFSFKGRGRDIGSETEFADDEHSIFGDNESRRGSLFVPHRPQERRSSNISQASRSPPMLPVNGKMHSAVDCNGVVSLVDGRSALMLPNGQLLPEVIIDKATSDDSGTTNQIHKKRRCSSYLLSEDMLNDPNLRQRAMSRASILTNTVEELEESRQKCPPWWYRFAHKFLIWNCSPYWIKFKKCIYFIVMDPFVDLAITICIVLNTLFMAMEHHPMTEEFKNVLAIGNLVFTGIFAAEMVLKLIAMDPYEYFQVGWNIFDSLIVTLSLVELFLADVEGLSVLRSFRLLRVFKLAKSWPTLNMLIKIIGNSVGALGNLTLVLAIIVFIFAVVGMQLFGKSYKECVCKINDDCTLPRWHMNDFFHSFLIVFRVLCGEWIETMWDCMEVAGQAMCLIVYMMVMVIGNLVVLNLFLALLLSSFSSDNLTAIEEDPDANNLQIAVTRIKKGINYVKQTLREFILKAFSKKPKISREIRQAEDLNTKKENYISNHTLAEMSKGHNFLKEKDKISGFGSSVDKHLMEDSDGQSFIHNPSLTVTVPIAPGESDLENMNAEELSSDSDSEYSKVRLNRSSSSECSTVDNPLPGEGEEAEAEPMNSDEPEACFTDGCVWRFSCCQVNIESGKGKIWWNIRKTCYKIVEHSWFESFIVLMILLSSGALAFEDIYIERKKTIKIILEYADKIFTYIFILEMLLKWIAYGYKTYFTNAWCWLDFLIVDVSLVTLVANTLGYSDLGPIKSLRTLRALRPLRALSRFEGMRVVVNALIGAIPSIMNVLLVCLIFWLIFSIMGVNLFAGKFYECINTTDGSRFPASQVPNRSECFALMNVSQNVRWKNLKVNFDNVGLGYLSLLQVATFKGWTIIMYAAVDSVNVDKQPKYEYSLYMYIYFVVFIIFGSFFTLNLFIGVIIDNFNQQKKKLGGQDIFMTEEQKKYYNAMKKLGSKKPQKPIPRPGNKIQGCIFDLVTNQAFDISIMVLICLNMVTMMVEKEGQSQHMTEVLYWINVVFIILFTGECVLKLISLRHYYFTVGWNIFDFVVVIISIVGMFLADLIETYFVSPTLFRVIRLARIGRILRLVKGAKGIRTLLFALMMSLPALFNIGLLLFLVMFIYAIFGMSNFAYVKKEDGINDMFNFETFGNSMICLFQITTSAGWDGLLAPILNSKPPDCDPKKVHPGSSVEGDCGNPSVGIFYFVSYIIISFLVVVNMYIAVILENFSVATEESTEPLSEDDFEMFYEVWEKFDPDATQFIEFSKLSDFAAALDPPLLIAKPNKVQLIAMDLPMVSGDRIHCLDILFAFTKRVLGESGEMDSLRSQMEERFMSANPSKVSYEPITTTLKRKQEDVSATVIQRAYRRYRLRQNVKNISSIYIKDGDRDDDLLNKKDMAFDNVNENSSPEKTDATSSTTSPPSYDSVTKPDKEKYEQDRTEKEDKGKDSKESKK

For `CC[C@H](C)[C@@H]1NC(=O)[C@@H]2CSSC[C@@H]3NC(=O)[C@H](C(C)C)NC(=O)[C@H](CC(C)C)NC(=O)[C@H](CC(N)=O)NC(=O)[C@@H]4CCCN4C(=O)[C@H](CCCNC(=N)N)NC(=O)[C@H](CSSC[C@H](NC(=O)[C@@H](N)CC(=O)O)C(=O)N[C@@H](CC(C)C)C(=O)NCC(=O)N[C@@H](Cc4ccccc4)C(=O)N[C@@H](CCSC)C(=O)N[C@@H](CCCNC(=N)N)C(=O)N[C@@H](CCCCN)C(=O)N2)NC(=O)[C@H](CSSC[C@@H](C(=O)N[C@@H](CCCCN)C(=O)N[C@@H](Cc2ccc(O)cc2)C(=O)N[C@H](C(=O)N[C@@H](Cc2ccccc2)C(N)=O)C(C)C)NC(=O)[C@H](Cc2c[nH]c4ccccc24)NC(=O)[C@H](CCCCN)NC(=O)[C@H](Cc2cnc[nH]2)NC(=O)[C@H]([C@@H](C)O)NC(=O)[C@H](CCCNC(=N)N)NC(=O)[C@H](CO)NC3=O)NC(=O)[C@H](C)NC(=O)[C@H](CC(=O)O)NC(=O)[C@H](CC(N)=O)NC(=O)[C@H](CC(=O)O)NC(=O)[C@@H]2CCCN2C1=O` (H-DCLGFMRKCIPDNDACCRPNLVCSRTHKWCKYVF-NH2; disulfide 2-17, 9-23, 16-30), the IC50 [1] was 230 nM and the IC50 [2] was > 5000 nM.

With `CC[C@H](C)[C@@H]1NC(=O)[C@@H]2CSSC[C@@H]3NC(=O)[C@H](C(C)C)NC(=O)[C@H](CC(C)C)NC(=O)[C@H](CC(N)=O)NC(=O)[C@@H]4CCCN4C(=O)[C@H](CCCNC(=N)N)NC(=O)[C@H](CSSC[C@H](NC(=O)[C@@H](N)CC(=O)O)C(=O)N[C@@H](CC(C)C)C(=O)NCC(=O)N[C@@H](C)C(=O)N[C@@H](Cc4cccc5ccccc45)C(=O)N[C@@H](CCCNC(=N)N)C(=O)N[C@@H](CCCCN)C(=O)N2)NC(=O)[C@H](CSSC[C@@H](C(=O)N[C@@H](CCCCN)C(=O)N[C@@H](Cc2ccc(O)cc2)C(=O)N[C@H](C(=O)N[C@@H](Cc2ccccc2)C(N)=O)C(C)C)NC(=O)[C@H](Cc2c[nH]c4ccccc24)NC(=O)[C@H](CCCCN)NC(=O)[C@H](Cc2cnc[nH]2)NC(=O)[C@H]([C@@H](C)O)NC(=O)[C@H](CCCNC(=N)N)NC(=O)[C@H](CO)NC3=O)NC(=O)[C@H](CCCCN)NC(=O)[C@H](CC(=O)O)NC(=O)[C@H](CC(N)=O)NC(=O)[C@H](CC(=O)O)NC(=O)[C@@H]2CCCN2C1=O` the IC50 [1] was 3 nM and the IC50 [2] was 3600 nM.

In the case of `CC[C@H](C)[C@@H]1NC(=O)[C@@H]2CSSC[C@@H]3NC(=O)[C@H](C(C)C)NC(=O)[C@H](CC(C)C)NC(=O)[C@H](CC(N)=O)NC(=O)[C@@H]4CCCN4C(=O)[C@H](CCCNC(=N)N)NC(=O)[C@H](CSSC[C@H](NC(=O)[C@@H](N)CC(=O)O)C(=O)N[C@@H](CC(C)C)C(=O)NCC(=O)N[C@@H](Cc4ccccc4)C(=O)N[C@@H](C)C(=O)N[C@@H](CCCNC(=N)N)C(=O)N[C@@H](CCCCN)C(=O)N2)NC(=O)[C@H](CSSC[C@@H](C(=O)N[C@@H](CCCCN)C(=O)N[C@@H](Cc2ccc(O)cc2)C(=O)N[C@H](C(=O)N[C@@H](Cc2ccccc2)C(N)=O)C(C)C)NC(=O)[C@H](Cc2c[nH]c4ccccc24)NC(=O)[C@H](CCCCN)NC(=O)[C@H](Cc2cnc[nH]2)NC(=O)[C@H]([C@@H](C)O)NC(=O)[C@H](CCCNC(=N)N)NC(=O)[C@H](CO)NC3=O)NC(=O)[C@H](CCCCN)NC(=O)[C@H](CC(=O)O)NC(=O)[C@H](CC(N)=O)NC(=O)[C@H](CC(=O)O)NC(=O)[C@@H]2CCCN2C1=O` (H-DCLGFARKCIPDNDKCCRPNLVCSRTHKWCKYVF-NH2; disulfide 2-17, 9-23, 16-30), the IC50 [1] is reported as 430 nM and the IC50 [2] is reported as > 5000 nM.
